Counter-ions that a name gives are not always drawn.
Tests used:
P-388 leukemia cells = experiment: Antitumor activity against P-388 leukemia cells (i.p. implanted, i.v. drug); type: in vivo, BDF1 mice; details: for response vs control in vivo at 20 mg/kg / response vs control in vivo at 40 mg/kg: Mus musculus, P388, iv, 720 h, read-out: T/C of MST; for response vs control in vivo at 20 mg/kg: dose b: 20 mg/kg/d × 3 (days 1, 5, 9); for response vs control in vivo at 40 mg/kg: dose c: 40 mg/kg/d × 3 (days 1, 5, 9)
Description: BDF1 mice were implanted intraperitoneally with P-388 leukemia cells at a rate of 1×10^6 cells/mouse, and each drug to be tested was administered intravenously on the first, fifth and ninth days, or on the first and fifth days after the implantation. […] The T/C (%) was calculated based on the following equation: [formula]
The drugs tested were as follows: solutions prepared by dissolving each of compound Nos. 34, 36 and 43 to 46 in physiological saline; suspension or solutions prepared by dissolving each of compound Nos. 35, 38 and 49 to 55 in dimethylacetamide, followed by adding thereto a small amount of a surface active agent (e.g., Tween-80) and then physiological saline; and suspension or solutions prepared by mixing each of the other compounds and a small amount of a surface active agent (e.g., Tween-80), followed by adding thereto physiological saline.

B-16 melanoma [1] = details: cancer inoculated i.p., drug i.p.; cited from earlier work
P-388 leukemia = details: cancer inoculated i.p., drug i.p.; cited from earlier work
[2] = Intestinal excretion percentage of drugs; type: in vivo; details: DDY mice, i.v. 40 mg/kg-b.w., 2 hours
Description: Each drug to be tested was administered to DDY mice intravenously at a dose of 40 mg/kg-b.w., and after 2 hours, contents of the small intestine and the large intestine and feces were extracted with a mixed solvent of chloroform and methanol. The extract was concentrated and each compound to be tested was quantitatively determined by high-speed liquid chromatography.
The drug tested was solution which prepared by dissolving the compound No. 17 in a small amount of dimethylacetoamide, followed by adding thereto a small amount of a surface active agent (e.g., Tween-80 ) and physiological saline.

L-1210 leukemia = details: cancer inoculated i.p., drug i.p.; cited from earlier work
[3] = in vivo; cited from earlier work
cancer = details: different sites; cited from earlier work
B-16 melanoma [4] = experiment: Antitumor activity against B-16 melanoma (i.v. drug); type: in vivo, BDF1 mice; details: 60-day observation
Description: BDF1 mice were implanted intraperitoneally with a B-16 melanoma cell suspension in an amount of 0.5 ml/mouse, and each drug to be tested was administered intravenously on the first, fifth and ninth days after the implantion. […] The T/C (%) was calculated in the same manner as aforementioned (1--1).
The B-16 melanoma cell suspension was prepared as follows. Tumor fragment, maintained by subcutaneous passages in C57BL/6 mice, were aseptically removed and passed through a sterile stainless-steel mesh. Thus obtained tumor was dispersed in a culture medium or physiological saline in an amount of 9 ml per 1 g of tumor.

[5] = Acute toxicity (LD50, single intravenous administration); parameters: species or system day mice; details: mouse, in vivo, mice, single i.v.
Excerpt: In Table 15 are shown acute toxicity values (LD50, mg/kg) in day mice in the case of intravenously administering (once) each of the compounds of this invention in the form of preparations shown in the Preparation Examples shown in Table 16.

L-1210 leukemia cells = experiment: Antitumor activity against L-1210 leukemia cells (i.p. implanted, i.v. drug); type: in vivo, BDF1 mice; details: 30-day observation
Description: BDF1 mice were implanted intraperitoneally with L-1210 leukemia cells at a rate of 1×10^5 cells/mouse, and each drug to be tested was administered intravenously on the first, fifth and ninth days after the implantation. […] The T/C (%) was calculated in the same manner as aforementioned (1--1).
The drugs tested were suspensions or solutions which prepared by mixing each compound to be tested and a small amount of a surface active agent (e.g., Tween-80), followed by adding thereto physiological saline.

SMILES | T/C (%) of MST (B-16 melanoma [4]; 60 mg/kg × 3 (days 1, 5, 9)) [%] | response vs control in vivo at 20 mg/kg (P-388 leukemia cells; i.v., 30-day observation) [%] | response vs control in vivo at 40 mg/kg (P-388 leukemia cells; i.v., 30-day observation) [%] | LD50 ([5]; Preparation Example 2) [mg/kg] | T/C (%) MST (L-1210 leukemia cells; 40 mg/kg × 3 (days 1, 5, 9)) [%] | LD50 ([5]; Preparation Example 1) [mg/kg] | other results
CO[C@H]1[C@@H](O)[C@@H](C)O[C@H](O[C@H]2[C@H](Oc3cccc4c(O)c5c(=O)oc6ccc(C)c7c(=O)oc(c34)c5c67)O[C@H](C)[C@H](O)[C@@H]2O)[C@@H]1O [Chartreusin, chartreusin] | – | – | – | – | – | – | T/C (%) (P-388 leukemia cells; comparison, chartreusin suspension in 0.2M Na2HPO4 / N,N-dimethylacetamide (4:1)): 105%; effect against B-16 melanoma (in words) (B-16 melanoma [1]): effective; effect against P-388 leukemia (in words) (P-388 leukemia): effective; Intestinal excretion percentage [(total amount of excretion/dose) × 100] [2]: 37.6%; effect against L-1210 leukemia (in words) (L-1210 leukemia): effective; biliary excretion relative to absorption to tissues (in words) [3]: biliary excretion of chartreusin essentially has the precedence over absorption thereof to tissues; effect when site of cancer inoculation and site of administration were different (in words) (cancer): not effective at all
COC1C(O)C(C)OC(OC2C(Oc3cccc4c(OC(=O)c5cccn5C)c5c(=O)oc6ccc(C)c7c(=O)oc(c34)c5c67)OC(C)C3OC(c4ccccc4)OC32)C1O (stereo not shown) [Compound 2] | 141 | 189 | 230 | ≥ 60 | 243 | – | –
COC1C(O)C(C)OC(OC2C(Oc3cccc4c(OC(=O)c5cc6ccccc6[nH]5)c5c(=O)oc6ccc(C)c7c(=O)oc(c34)c5c67)OC(C)C3OC(c4ccccc4)OC32)C1O (stereo not shown) [Compound 17, 6-O-(2-indolyl-carbonyl)-3',4'-O-benzylidene-chartreusin] | 141 | 199 | 255 | – | 181 | ≥ 60 | Intestinal excretion percentage [(total amount of excretion/dose) × 100] [2]: 5.4%
COC1C(O)C(C)OC(OC2C(Oc3cccc4c(OC(=O)c5cccs5)c5c(=O)oc6ccc(C)c7c(=O)oc(c34)c5c67)OC(C)C3OC(c4ccccc4)OC32)C1O (stereo not shown) [Compound 11, 6-O-(2-thienyl-carbonyl)-3',4'-O-benzylidene-chartreusin] | 143 | 217 | – | ≥ 60 | – | – | –
COC1C(O)C(C)OC(OC2C(Oc3cccc4c(OC(=O)c5c(-c6ccccc6)noc5C)c5c(=O)oc6ccc(C)c7c(=O)oc(c34)c5c67)OC(C)C3OC(c4ccccc4)OC32)C1O (stereo not shown) [Compound 14, 6-O-{4-(5-methyl-3-phenylisoxazolyl)-carbonyl}-3',4'-O-benzylidene-chartreusin] | 143 | 207 | 250 | – | 208 | ≥ 60 | –
COC1C(O)C(C)OC(OC2C(Oc3cccc4c(OC(=O)c5cccs5)c5c(=O)oc6ccc(C)c7c(=O)oc(c34)c5c67)OC(C)C3OC(C)(C)OC32)C1O (stereo not shown) [Compound 10] | – | – | 162 | – | – | – | T/C of MST (P-388 leukemia cells; i.v., dose f: 80 mg/kg/d × 3 (days 1, 5, 9), 30-day observation): 207%; LD50 ([5]; Preparation Example 4): ≥ 80 mg/kg; T/C (%) MST (L-1210 leukemia cells; 80 mg/kg × 3 (days 1, 5, 9)): 140%
COC1C(O)C(C)OC(OC2C(Oc3cccc4c(OC(=O)c5ccco5)c5c(=O)oc6ccc(C)c7c(=O)oc(c34)c5c67)OC(C)C3OC(c4ccccc4)OC32)C1O (stereo not shown) [Compound 6] | 159 | 199 | 217 | ≥ 60 | – | – | –
CCn1cc(C(=O)Oc2c3cccc(OC4OC(C)C5OC(c6ccccc6)OC5C4OC4OC(C)C(O)C(OC)C4O)c3c3oc(=O)c4c(C)ccc5oc(=O)c2c3c54)c(=O)c2ccc(C)nc21 (stereo not shown) [Compound 33, 6-O-{3-(1,4-dihydro-1-ethyl-7-methyl-4-oxo-1,8-naphthyridinyl)-carbonyl}-3',4'-O-benzylidene-chartreusin] | – | 218 | 274 | – | – | ≥ 40 | T/C (%) of MST (B-16 melanoma [4]; 40 mg/kg × 3 (days 1, 5, 9)): 142%
COC1C(N)C(C)OC(OC2C(Oc3cccc4c(OC(=O)CCN5CCCC5)c5c(=O)oc6ccc(C)c7c(=O)oc(c34)c5c67)OC(C)C3OC(c4ccccc4)OC32)C1O (stereo not drawn) [Compound 36, 6-O-(β-1-pyrrolidinylpropionyl)-3',4'-O-benzylidene-4"-epiamino-4"-deoxy-chartreusin dihydrochloride] | – | 168 | – | – | – | – | LD50 ([5]; Preparation Example 8): ≥ 20 mg/kg

Source: US4927919A, “Chartreusin derivatives and salts thereof” (Ishihara Sangyo Kaisha, Ltd., priority 1985, dated 1990)
